Read-outs that look alike come from different tables or passages of the source.
Key:
[1] = target: T1, PAH (Rattus norvegicus, UniProt P04176); conditions: cited from earlier work
T1 sequence (P04176 1-453): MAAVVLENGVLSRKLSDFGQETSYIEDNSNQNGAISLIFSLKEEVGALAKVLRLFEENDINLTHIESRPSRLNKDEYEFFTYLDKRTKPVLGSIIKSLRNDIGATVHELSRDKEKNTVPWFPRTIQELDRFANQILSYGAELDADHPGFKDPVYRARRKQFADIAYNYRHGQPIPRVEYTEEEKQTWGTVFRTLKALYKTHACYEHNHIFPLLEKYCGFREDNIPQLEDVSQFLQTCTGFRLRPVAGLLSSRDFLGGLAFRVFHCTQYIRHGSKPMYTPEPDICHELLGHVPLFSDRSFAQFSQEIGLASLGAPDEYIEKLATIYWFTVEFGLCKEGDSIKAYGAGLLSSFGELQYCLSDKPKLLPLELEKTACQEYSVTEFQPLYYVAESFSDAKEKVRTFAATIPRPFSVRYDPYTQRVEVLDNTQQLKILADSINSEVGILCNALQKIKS

[2] = target: T2, rat PAH (Rattus norvegicus, UniProt P04176); test: SEC of purified rat PAH (Superdex 200); conditions: Phe in running buffer (FIG. 7D)
T2 construct: expression vectors for full length untagged rat and human PAH from Prof; P. Fitzpatrick; made in house
T2 sequence (P04176 1-453): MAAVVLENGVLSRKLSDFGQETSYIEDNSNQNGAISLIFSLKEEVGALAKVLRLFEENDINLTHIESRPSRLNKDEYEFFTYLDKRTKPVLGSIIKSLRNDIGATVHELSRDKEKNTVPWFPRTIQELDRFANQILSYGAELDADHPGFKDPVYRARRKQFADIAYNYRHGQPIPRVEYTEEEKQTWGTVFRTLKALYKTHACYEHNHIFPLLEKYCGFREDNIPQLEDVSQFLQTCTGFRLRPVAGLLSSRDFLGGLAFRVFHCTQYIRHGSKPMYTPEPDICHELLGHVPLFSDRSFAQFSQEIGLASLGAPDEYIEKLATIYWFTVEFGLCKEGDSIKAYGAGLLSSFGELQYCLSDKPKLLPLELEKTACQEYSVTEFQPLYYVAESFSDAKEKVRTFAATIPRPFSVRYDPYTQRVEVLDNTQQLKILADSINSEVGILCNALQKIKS
Experimental: (§1) FIG. 7 represents preliminary results on purified mammalian PAH. […] Full length human PAH, cleaved from an N-terminal MBP fusion construct, runs at a dimer:tetramer ratio of ˜2:1 on a calibrated Superdex-200 column. With 1 mM Phe added to the running buffer, this ratio is shifted to ˜1:1. Buffers contain 125 mM KCl, which is known to stabilize the tetramer. FIG. 7B represents preliminary kinetic studies on purified rat PAH, monitoring tyrosine fluorescence, showing “order of addition” effects at 300 μM Phe and 75 μM BH4. […] FIG. 7E is a full length rat PAH ([…]), run on a 1 ml HiTrap Q column in 30 mM Tris-HCl with a KCl gradient (B=400 mM KCl). […] FIG. 7F is native PhastGel Western blot showing the effects of ligands on the rat PAH quaternary structure equilibrium (overnight, RT, ˜1 mg/ml). Lane 1—as purified; Lane 2—1 mM Phe; Lane 3—50 μM Phe; Lane 4—75 μM BH4; Lane 5, 50 μPhe+75 μM BH4.
(§2) With regard to the oligomeric equilibrium, rat PAH (in 15% glycerol) is found to be predominantly tetrameric by both native PAGE and SEC (FIGS. 7C & 7D). […] Coupled with the SEC results in FIG. 7D, this illustrates that IEC can be used to separate two tetramers, 4mer and 4mer*.

[3] = target: T2, rat PAH; test: Ion exchange chromatography of rat PAH (HiTrap Q, KCl gradient); conditions: 1 mM Phe in the elution buffer, 30 mM Tris-HCl, KCl gradient (FIG. 7E)
Experimental: as §1, §2

[4] = target: T2, rat PAH; test: Native PAGE (PhastGel Western blot) of rat PAH quaternary structure equilibrium; conditions: ~1 mg/ml rat PAH, overnight, RT; 1 mM or 50 μM Phe, 75 μM BH4
Experimental: as §1, §2

[5] = target: the molecule itself; test: SEC on calibrated Superdex-200, buffer with 125 mM KCl, no Phe; self-association of PAH subunits
Experimental: as §1

[6] = target: the molecule itself; test: SEC on calibrated Superdex-200, buffer with 125 mM KCl and 1 mM Phe; self-association of PAH subunits
Experimental: as §1

[7] = target: the molecule itself; test: SEC on Superdex 200 (FIG. 7D); self-association

C[C@H](O)[C@H](O)[C@H]1CNc2nc(N)[nH]c(=O)c2N1 [BH4, tetrahydrobiopterin]
Kd ([1]; high-activity forms of PAH, read-out: Kd, binding to the high-activity forms of PAH): ~14 µM
Kd ([1]; low-activity form(s) of PAH, read-out: Kd, binding to the low-activity form(s) of PAH): ~0.1 µM

N[C@@H](Cc1ccccc1)C(=O)O [Phe, phenylalanine]
effect on tetramer predominance by SEC [2]: not altered
effect on IEC elution profile [3]: dramatically alters the elution profile
effect on distribution of PAH quaternary structure isoforms by native PAGE [4]: alters the distribution of PAH quaternary structure isoforms

B1: Full length human phenylalanine hydroxylase (PAH), cleaved from an N-terminal MBP fusion construct (enzyme, UniProt P00439 1-452, looked up)
chain: MSTAVLENPGLGRKLSDFGQETSYIEDNCNQNGAISLIFSLKEEVGALAKVLRLFEENDVNLTHIESRPSRLKKDEYEFFTHLDKRSLPALTNIIKILRHDIGATVHELSRDKKKDTVPWFPRTIQELDRFANQILSYGAELDADHPGFKDPVYRARRKQFADIAYNYRHGQPIPRVEYMEEEKKTWGTVFKTLKSLYKTHACYEYNHIFPLLEKYCGFHEDNIPQLEDVSQFLQTCTGFRLRPVAGLLSSRDFLGGLAFRVFHCTQYIRHGSKPMYTPEPDICHELLGHVPLFSDRSFAQFSQEIGLASLGAPDEYIEKLATIYWFTVEFGLCKQGDSIKAYGAGLLSSFGELQYCLSEKPKLLPLELEKTAIQNYTVTEFQPLYYVAESFNDAKEKVRNFAATIPRPFSVRYDPYTQRIEVLDNTQQLKILADSINSEIGILCSALQKIK
notes: mature; also called human PAH
dimer:tetramer ratio [5]: ~2 dimer:tetramer ratio (x:1)
dimer:tetramer ratio [6]: ~1 dimer:tetramer ratio (x:1)

B2: Full length untagged rat phenylalanine hydroxylase (PAH), purified by the Shiman affinity method (enzyme, UniProt P04176 2-453, looked up)
chain: AAVVLENGVLSRKLSDFGQETSYIEDNSNQNGAISLIFSLKEEVGALAKVLRLFEENDINLTHIESRPSRLNKDEYEFFTYLDKRTKPVLGSIIKSLRNDIGATVHELSRDKEKNTVPWFPRTIQELDRFANQILSYGAELDADHPGFKDPVYRARRKQFADIAYNYRHGQPIPRVEYTEEEKQTWGTVFRTLKALYKTHACYEHNHIFPLLEKYCGFREDNIPQLEDVSQFLQTCTGFRLRPVAGLLSSRDFLGGLAFRVFHCTQYIRHGSKPMYTPEPDICHELLGHVPLFSDRSFAQFSQEIGLASLGAPDEYIEKLATIYWFTVEFGLCKEGDSIKAYGAGLLSSFGELQYCLSDKPKLLPLELEKTACQEYSVTEFQPLYYVAESFSDAKEKVRTFAATIPRPFSVRYDPYTQRVEVLDNTQQLKILADSINSEVGILCNALQKIKS
notes: mature; Homo-oligomer found predominantly as tetramer, with some dimer; also called rat PAH
binding result [7]: binds

Reference: US20130004504A1, “METHOD OF MODULATING PHENYLALANINE HYDROXYLASE STRUCTURE AND FUNCTION” (Fox Chase Cancer Center, priority 2011, published 2013)
